For experiment [1], the target named is T1, PRMT5 (Homo sapiens, UniProt O14744).
T1 construct: purchased Viva (custom protein)
In words: PRMT5 biochemical IC50 assay with MTA as cofactor. To be noted: PRMT5, MTA as cofactor; read-out: MTA IC50.

In experiment [2] the target is T1, PRMT5. In words: PRMT5 biochemical IC50 assay with no cofactor. To be noted: PRMT5, no cofactor. The source says:
Table 1 indicates IC50 values (μM) against PRMT5 for exemplary compounds in the presence of SAM as cofactor, with no cofactor, and with MTA as cofactor, respectively (columns 4-6). […] Ki values can be calculated from the IC50 values as described in the Examples section. As detailed in the Examples section, for the assay performed in the presence of SAM, IC50=Ki×1.5 (Ki=IC50/1.5).

Experiment [3] concerns HAP1 MTAP-intact cell line. In words: SDMA in-cell western assay, HAP1 MTAP-intact. The note with it: Homo sapiens, HAP1, SDMA in-cell western, HAP1 MTAP-intact; read-out: MTAP HAP1 intact IC50. The format is cell-based. The method, boiled down: (§1)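 IC50 values come from SDMA signal quantified by in-cell western in two HAP1 lines, one with native MTAP levels and one lacking MTAP.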

Experiment [4] deals with HAP1 MTAP-deleted cell line. In words: SDMA in-cell western assay, HAP1 MTAP-deleted. To be noted: for IC50: Homo sapiens, HAP1, SDMA in-cell western, HAP1 MTAP-deleted; for MTAP intact/deleted ratio: SDMA in-cell western. It is filed as cell-based. The method, boiled down:
as §1

In experiment [5] the target is T1, PRMT5. In words: PRMT5 biochemical IC50 assay with SAM as cofactor. The note with it: PRMT5, SAM as cofactor; read-out: SAM IC50.
Experiment [6] has as its system HAP1 MTAP-deleted cell line. In words: Viability assay, MTAP-deleted cell line. It is filed as cell-based. The note with it: Homo sapiens, read-out: HAP1 MTAP deleted viability. The source says:
Table 1 additionally indicates IC50 values in a viability assay for the MTAP-deleted cell line (column 10), indicating the effect of treatment with compound on cell survival.

Setting [7] is: read-out: No Cofactor/ rel IC50.
Setting [8] is: read-out: HAP 1 MTAP deleted IC50.
Setting [9] is: IC50 ratio HAP1 MTAP-intact / HAP1 MTAP-deleted.
[10] abbreviates: HAP1, viability, HAP1 MTAP-deleted cell line.

T1 sequence (O14744 whole entry): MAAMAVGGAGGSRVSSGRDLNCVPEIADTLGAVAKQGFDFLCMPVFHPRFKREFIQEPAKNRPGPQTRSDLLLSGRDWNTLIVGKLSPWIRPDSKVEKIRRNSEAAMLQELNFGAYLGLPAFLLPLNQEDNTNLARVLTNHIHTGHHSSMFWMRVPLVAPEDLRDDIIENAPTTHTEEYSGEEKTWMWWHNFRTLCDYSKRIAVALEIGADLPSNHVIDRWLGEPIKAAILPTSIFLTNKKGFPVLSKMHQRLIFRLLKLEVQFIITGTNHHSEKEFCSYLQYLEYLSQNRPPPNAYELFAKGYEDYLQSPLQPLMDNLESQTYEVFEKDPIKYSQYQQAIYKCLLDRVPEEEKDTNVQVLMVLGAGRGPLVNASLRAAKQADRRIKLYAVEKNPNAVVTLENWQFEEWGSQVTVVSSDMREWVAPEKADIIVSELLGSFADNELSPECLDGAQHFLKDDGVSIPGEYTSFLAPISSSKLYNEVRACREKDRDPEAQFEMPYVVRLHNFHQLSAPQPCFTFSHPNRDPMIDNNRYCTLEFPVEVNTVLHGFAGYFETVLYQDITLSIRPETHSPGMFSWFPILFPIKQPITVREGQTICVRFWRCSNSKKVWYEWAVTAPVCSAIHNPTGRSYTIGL
T1 sequence (Q9BQA1 whole entry partner): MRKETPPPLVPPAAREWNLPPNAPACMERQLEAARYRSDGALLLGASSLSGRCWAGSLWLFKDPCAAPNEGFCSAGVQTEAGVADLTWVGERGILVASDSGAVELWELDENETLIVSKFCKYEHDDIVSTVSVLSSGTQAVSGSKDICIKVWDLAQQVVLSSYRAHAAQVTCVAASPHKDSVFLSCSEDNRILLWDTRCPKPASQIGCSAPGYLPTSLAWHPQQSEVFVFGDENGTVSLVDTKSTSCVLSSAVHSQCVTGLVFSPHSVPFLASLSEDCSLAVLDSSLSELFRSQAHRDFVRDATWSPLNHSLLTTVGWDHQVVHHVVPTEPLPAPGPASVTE

For `CCc1cc(NC(=O)C(=O)N2C[C@@H](C)CC[C@@H]2c2ccc3sc(-c4ccccn4)nc3c2)cnc1N` [Compound 1238, N-(6-amino-5-ethylpyridin-3-yl)-2-((2R,5S)-5-methyl-2-(2-(pyridin-2-yl)benzo[d]thiazol-5-yl)piperidin-1-yl)-2-oxoacetamide], the IC50 is less than 50 nM on PRMT5 [1]; 50 to 500 nM at PRMT5 [2] (read-out: No Cofactor/rel IC50); 100 to 1000 nM in experiment [3]; less than 100 nM in experiment [4] (read-out: HAP1 MTAP deleted IC50); 50 to 500 nM on PRMT5 [5]; less than 1000 nM in experiment [6] (HAP1, viability assay, MTAP-deleted cell line). In addition, the MTAP intact/deleted ratio result in experiment [4] (IC50 ratio HAP1 MTAP-intact vs HAP1 MTAP-deleted) is “A (an IC50 ratio greater than or equal to 10 fold)”.
As to `CCc1cc(NC(=O)C(=O)N2C[C@@H](C)CC[C@@H]2c2ccc3sc(C4CCNCC4)nc3c2)cnc1N` [Compound 1240, N-(6-amino-5-ethyl-3-pyridyl)-2-[(2R,5S)-5-methyl-2-[2-(4-piperidyl)-1,3-benzothiazol-5-yl]-1-piperidyl]-2-oxo-acetamide], the IC50 on PRMT5 [1] was less than 50 nM; at PRMT5 [2] (setting [7]), less than 50 nM; in experiment [3] it was less than 100 nM; in experiment [4] (setting [8]), less than 100 nM; on PRMT5 [5], less than 50 nM; in experiment [6] (setting [10]) it was less than 1000 nM. In addition, the “MTAP intact/deleted ratio” value in experiment [4] (setting [9]) was “B (an IC50 ratio greater than or equal to 3 fold but lower than 10 fold)”.
With `CCc1cc(NC(=O)C(=O)N2C[C@@H](C)CC[C@@H]2c2ccc3sc(C4CCOC4)nc3c2)cnc1N` (stereo partly drawn) [Compound 1242, N-(6-amino-5-ethylpyridin-3-yl)-2-((2R,5S)-5-methyl-2-(2-(tetrahydrofuran-3-yl)benzo[d]thiazol-5-yl)piperidin-1-yl)-2-oxoacetamide], the IC50 was less than 50 nM on PRMT5 [1]; less than 50 nM on PRMT5 [2] (setting [7]); 100 to 1000 nM in experiment [3]; less than 100 nM in experiment [4] (setting [8]); 50 to 500 nM on PRMT5 [5]; less than 1000 nM in experiment [6] (setting [10]). The “MTAP intact/deleted ratio” value in experiment [4] (setting [9]) is “A (an IC50 ratio greater than or equal to 10 fold)”.
Turning to `CCc1cc(NC(=O)C(=O)N2C[C@@H](C)CC[C@@H]2c2ccc3sc(N4CCN(C)CC4)nc3c2)cnc1N` [Compound 1244, N-(6-amino-5-ethylpyridin-3-yl)-2-((2R,5S)-5-methyl-2-(2-(4-methylpiperazin-1-yl)benzo[d]thiazol-5-yl)piperidin-1-yl)-2-oxoacetamide], the IC50 at PRMT5 [1] is less than 50 nM; on PRMT5 [2] (setting [7]) it was less than 50 nM; in experiment [3] it was less than 100 nM; in experiment [4] (setting [8]) it was less than 100 nM; at PRMT5 [5], 50 to 500 nM; in experiment [6] (setting [10]), less than 1000 nM. The “MTAP intact/deleted ratio” value in experiment [4] (setting [9]) is listed as “A (an IC50 ratio greater than or equal to 10 fold)”.
As for `CCc1cc(NC(=O)C(=O)N2C[C@@H](C)CC[C@@H]2c2ccc3sc([C@H]4COCCN4C)nc3c2)cnc1N` [Compound 1245, N-(6-amino-5-ethylpyridin-3-yl)-2-((2R,5S)-5-methyl-2-(2-(4-methylmorpholin-3-yl)benzo[d]thiazol-5-yl)piperidin-1-yl)-2-oxoacetamide], the IC50 was less than 50 nM at PRMT5 [1]; less than 50 nM at PRMT5 [2] (setting [7]); 100 to 1000 nM in experiment [3]; less than 100 nM in experiment [4] (setting [8]); 50 to 500 nM on PRMT5 [5]; less than 1000 nM in experiment [6] (setting [10]). Also, the “MTAP intact/deleted ratio” value in experiment [4] (setting [9]) was “A (an IC50 ratio greater than or equal to 10 fold)”.
For the compound `CCc1cc(NC(=O)C(=O)N2C[C@@H](C)CC[C@@H]2c2cc(Cl)cc(OCCN(C)C)c2)cnc1N` [Compound 1247, N-(6-amino-5-ethylpyridin-3-yl)-2-((2R,5S)-2-(3-chloro-5-(2-(dimethylamino)ethoxy)phenyl)-5-methylpiperidin-1-yl)-2-oxoacetamide], the IC50 is less than 50 nM at PRMT5 [1]; less than 50 nM on PRMT5 [2] (setting [7]); 100 to 1000 nM in experiment [3]; less than 100 nM in experiment [4] (setting [8]); less than 50 nM on PRMT5 [5]; less than 1000 nM in experiment [6] (setting [10]). Besides, the “MTAP intact/deleted ratio” value in experiment [4] (setting [9]) is reported as “A (an IC50 ratio greater than or equal to 10 fold)”.

The values above are taken from patent US11999727B2 (Tango Therapeutics, Inc., priority 2020, dated 2024).
